For one data set, the target named is T1, OAT1 (Homo sapiens, UniProt Q4U2R8).
T1 construct: host or cells: HEK293
T1 sequence (Q4U2R8 1-563): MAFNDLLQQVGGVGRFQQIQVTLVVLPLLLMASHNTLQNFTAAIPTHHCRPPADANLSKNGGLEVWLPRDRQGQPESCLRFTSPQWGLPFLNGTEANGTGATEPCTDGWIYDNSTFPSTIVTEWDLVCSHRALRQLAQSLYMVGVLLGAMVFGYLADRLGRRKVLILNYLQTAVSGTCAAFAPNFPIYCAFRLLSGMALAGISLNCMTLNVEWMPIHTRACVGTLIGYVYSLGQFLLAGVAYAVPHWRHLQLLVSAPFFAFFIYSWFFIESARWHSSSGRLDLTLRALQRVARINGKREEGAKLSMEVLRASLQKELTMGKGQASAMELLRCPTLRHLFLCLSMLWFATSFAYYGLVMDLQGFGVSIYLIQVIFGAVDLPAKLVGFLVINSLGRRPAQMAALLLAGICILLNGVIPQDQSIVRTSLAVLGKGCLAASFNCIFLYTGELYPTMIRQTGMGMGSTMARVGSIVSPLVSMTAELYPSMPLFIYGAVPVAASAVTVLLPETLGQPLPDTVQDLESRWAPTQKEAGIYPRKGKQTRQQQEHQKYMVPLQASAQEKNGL
Put plainly: OAT1 activity: fluorescein accumulation in HEK-OAT1 cells. Format: cell-based.

A further data set has as its target T2, OAT3 (Homo sapiens, UniProt Q8TCC7).
T2 sequence (Q8TCC7 1-542): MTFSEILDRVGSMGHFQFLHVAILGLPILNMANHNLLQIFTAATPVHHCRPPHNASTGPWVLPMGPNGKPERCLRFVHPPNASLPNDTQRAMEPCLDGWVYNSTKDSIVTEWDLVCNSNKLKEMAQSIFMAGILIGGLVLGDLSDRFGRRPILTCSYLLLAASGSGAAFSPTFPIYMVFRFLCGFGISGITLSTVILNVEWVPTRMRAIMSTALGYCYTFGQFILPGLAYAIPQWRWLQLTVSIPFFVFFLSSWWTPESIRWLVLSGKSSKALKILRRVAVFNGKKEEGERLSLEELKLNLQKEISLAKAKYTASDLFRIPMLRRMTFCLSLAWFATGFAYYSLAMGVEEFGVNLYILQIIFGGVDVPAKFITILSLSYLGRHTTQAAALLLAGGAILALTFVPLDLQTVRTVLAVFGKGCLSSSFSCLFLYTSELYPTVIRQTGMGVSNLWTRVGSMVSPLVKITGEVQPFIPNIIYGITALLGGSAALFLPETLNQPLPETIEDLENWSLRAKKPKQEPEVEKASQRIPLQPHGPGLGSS
Put plainly: OAT3 activity: fluorescein accumulation in HEK-OAT3 cells. Particulars: for effect on OAT3 activity: pyrethroid 100 μM; for inhibition at 100 μM: human, pH 7.4. As for the experimental part: (§1) The effects of pyrethroids on activity of ABC and SLC transporters were determined through measuring cellular accumulation or retention of fluorescent or radiolabeled reference substrates for transporters, in the presence or absence of reference inhibitors, as previously described. The nature of cells and reference substrates and inhibitors used for transport assays are summarized in S3 Table.
For accumulation assays (performed for all transporters, excepted BCRP), transporter-expressing cells usually cultured in 48-well plates were first incubated at 37°C with reference substrates in the absence (control) or presence of pyrethroids or reference inhibitors, in a well-defined transport assay medium, consisting of 136 mM NaCl, 5.3 mM KCl, 1.1mM KH2PO4, 0.8 mM MgSO4, 1.8 mM CaCl2, 10 mM HEPES, 11 mM D-glucose and adjusted to pH = 7.4 (excepted for MATE transporter assays, for which pH was set to 8.4). The nature of substrates and reference inhibitors and the incubation times with substrates, that varied according to the transporter, were selected in agreement with previous studies and are indicated in S3 Table. The total incubation volume with substrates was 200 μL/well. After washing twice in phosphate-buffered saline (PBS) (200 μL/well/washing), cells were lysed in distilled water (155 μL/well). An aliquot of cell lysate (5 μL) was then taken for determining cellular protein content by the Bradford method. The rest of lysate (150 μL/well) was used for measuring intracellular accumulation of reference substrates by scintillation counting or spectrofluorimetry using a SpectraMax Gemini SX spectrofluorometer (Molecular Devices, Sunnyvale, CA, USA) (excitation and emission wavelengths were 485 and 535 nm, respectively, for rhodamine 123 and fluorescein, and 355 and 460 nm, respectively, for DAPI).
(§2) Intracellular concentrations of reference substrates were initially expressed as fluorescence arbitrary units (for fluorescent dye substrates) or as moles (for radiolabeled substrates) and normalized to cellular protein content, determined by the Bradford method. They were finally used for calculating percentage of transporter activity, according to the following equations [41, 45]: %ABCtransporter activity=([Substrateref inh]-[Substratepyrethroid])×100/([Substrateref inh]-[Substratecontrol]) (1) %SLC transporter activity=([Substratepyrethroid]-[Substratref inh])×100/([Substratecontrol]-[Substrateref inh]) (2) with [Substratepyrethroid] = cellular concentration of reference substrate in the presence of pyrethroid, [Substrateref inh] = cellular concentration of reference substrate in the presence of reference inhibitor and [Substratecontrol] = cellular concentration of reference substrate in control cells not exposed to pyrethroid or reference inhibitor.
(§3) The initial tested concentration of pyrethroids was 100 μM. […] Such concentrations were calculated using GraphPad Prism software (GraphPad Software, La Jolla, CA), through nonlinear regression based on the four parameter logistic function using the following equations: […]

The target of a further data set is T3, OCT2 (Homo sapiens, UniProt O15244).
T3 sequence (O15244 1-555): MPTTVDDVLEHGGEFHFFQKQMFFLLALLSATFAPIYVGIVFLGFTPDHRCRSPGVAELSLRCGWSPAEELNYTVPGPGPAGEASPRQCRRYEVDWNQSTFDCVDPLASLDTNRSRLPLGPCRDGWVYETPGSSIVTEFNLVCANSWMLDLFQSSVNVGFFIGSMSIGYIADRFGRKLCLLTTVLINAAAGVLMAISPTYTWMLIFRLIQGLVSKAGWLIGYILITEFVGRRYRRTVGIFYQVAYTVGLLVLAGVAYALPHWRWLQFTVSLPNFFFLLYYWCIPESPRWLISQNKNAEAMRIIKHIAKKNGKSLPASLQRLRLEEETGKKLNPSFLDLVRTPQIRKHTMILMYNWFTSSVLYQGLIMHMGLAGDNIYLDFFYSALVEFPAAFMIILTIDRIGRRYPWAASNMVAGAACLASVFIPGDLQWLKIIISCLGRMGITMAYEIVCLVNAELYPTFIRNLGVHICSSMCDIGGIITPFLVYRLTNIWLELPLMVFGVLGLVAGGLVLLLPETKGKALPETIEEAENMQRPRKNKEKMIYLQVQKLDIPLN
Put plainly: OCT2 activity: rhodamine 123 accumulation in HEK-OCT2 cells. Particulars: for effect on OCT2 activity: pyrethroid 100 μM. The protocol:
as §1
The nature of substrates and reference inhibitors and the incubation times with substrates, that varied according to the transporter, were selected in agreement with previous studies and are indicated in S3 Table. The total incubation volume with substrates was 200 μL/well. […] An aliquot of cell lysate (5 μL) was then taken for determining cellular protein content by the Bradford method.
as §2, §3

Where two headings read alike, the source gives them in different places.

Experimental for OAT1: The effects of pyrethroids on activity of ABC and SLC transporters were determined through measuring cellular accumulation or retention of fluorescent or radiolabeled reference substrates for transporters, in the presence or absence of reference inhibitors, as previously described [41].
The total incubation volume with substrates was 200 μL/well. […] An aliquot of cell lysate (5 μL) was then taken for determining cellular protein content by the Bradford method [44].
Intracellular concentrations of reference substrates were initially expressed as fluorescence arbitrary units (for fluorescent dye substrates) or as moles (for radiolabeled substrates) and normalized to cellular protein content, determined by the Bradford method [44]. They were finally used for calculating percentage of transporter activity, according to the following equations [41, 45]: %ABCtransporter activity=([Substrateref inh]-[Substratepyrethroid])×100/([Substrateref inh]-[Substratecontrol]) (1) %SLC transporter activity=([Substratepyrethroid]-[Substratref inh])×100/([Substratecontrol]-[Substrateref inh]) (2) with [Substratepyrethroid] = cellular concentration of reference substrate in the presence of pyrethroid, [Substrateref inh] = cellular concentration of reference substrate in the presence of reference inhibitor and [Substratecontrol] = cellular concentration of reference substrate in control cells not exposed to pyrethroid or reference inhibitor.

For `C#CCN1CC(=O)N(COC(=O)[C@@H]2C(C=C(C)C)C2(C)C)C1=O` (mixture of isomers) [imiprothrin], the “effect on OAT1 activity” value at OAT1 (pyrethroid up to 100 μM) was “failed to alter”. For the same molecule, the “effect on OAT3 activity” value at OAT3 is “inhibited”. Moreover, on OCT2, the “effect on OCT2 activity” value is listed as “inhibited”.
Usually IC50 stands for the concentration needed to halve the response being measured. Low readings indicate greater potency, high ones weaker potency. Broadly, the inhibition is the change of the read-out against control, counted positive when it falls. Lower therefore signals a response near the control. `C=CCC1=C(C)C(OC(=O)C2C(C=C(C)C)C2(C)C)CC1=O` (centres unmarked) [allethrin]: on OAT1 (pyrethroid up to 100 μM), the “effect on OAT1 activity” value was “failed to alter”. Moreover, the “effect on OAT1 activity” value at OAT1 (pyrethroid up to 100 μM, listed as Allethrin) was “No effect (up to 100 μM)”. Moreover, at OAT3, inhibition was half-maximal at 69.4 µM (IC50) and the inhibition at 100 μM worked out at 74.8%. On OCT2, half-maximal inhibition (IC50) was put at 42.6 µM and the “effect on OCT2 activity” value was “markedly inhibit”.
Regarding `C#CCC1=C(C)C(OC(=O)C2C(C=C(C)C)C2(C)C)CC1=O` (centres unmarked) [prallethrin], the “effect on OAT1 activity” value on OAT1 (pyrethroid up to 100 μM) is reported as “failed to alter”. Further, the “effect on OAT3 activity” value on OAT3 is recorded as “inhibited”. Moreover, the “effect on OCT2 activity” value on OCT2 is listed as “inhibited”.
With `CC(C)=CC1C(C(=O)OCN2C(=O)C3=C(CCCC3)C2=O)C1(C)C` (centres unmarked) [tetramethrin], the “effect on OAT1 activity” value on OAT1 was “No effect (up to 100 μM)”. At OAT3, the IC50 was found to be 77.6 µM and the inhibition at 100 μM was 69.3%. Besides, at OCT2, 11.2 µM corresponded to half-maximal inhibition (IC50) and the “effect on OCT2 activity” value is “markedly inhibit”.

These data come from publication PMC5242521 (PLoS ONE, 2017).
